Laboratory results reported in patent publication US7247706B2, “Double mutant alpha-7 nicotinic acetylcholine receptors” (Pharmacia & Upjohn Company, priority 1999, dated 2007).
Where two headings read alike, the source gives them in different places.

Legend:
α7/5-HT3 channel = molecular target: T1, α7/5-HT3 channel (Homo sapiens, UniProt P36544, M226I/T225I); experiment: Calcium flux assay on FLIPR, agonist activity, α7/5-HT3-SHEP cells; type: cell-based, human α7 / mouse 5-HT3; settings: for EC50: calcium flux
T1 construct: expressed in transfected cells
Description: The α7/5-HT3-SHEP or alternatively the human α7 nACHR double mutant SHEP (described below) cells were grown in minimal essential medium (MEM) containing nonessential amino acids supplemented with 10% fetal bovine serum, L-glutamine, 100 units/ml penicillin/streptomycin, 250 ng/ml fungizone, 400 μg/ml Hygromycin-B, and 800 μg/ml Geneticin. The cells were grown in a 37° C. incubator with 6% CO2. The α7/5-HT3-SHEP cells were trypsinized and plated in 96 well plates with dark side walls and clear bottoms (Corning # 3614) at density of […] cells per well two days before analysis. The cells were loaded in a 1:1 mixture of 2 mM Calcium Green-1, AM (Molecular Probes) prepared in anhydrous dimethylsulfoxide and 20% pluonic F-127 (Molecular Probes). This reagent was added directly to the growth medium of each well to achieve a final concentration of 2 μM of Calcium Green-1, AM. The cells were incubated in the dye for one hour at 37° C. and then washed with 4 cycles of Bio-Tek plate washer. Each cycle was programmed to wash each well with four times with either EBSS or MMEBSS. After the third cycle, the cells were allowed to incubate at 37° C. for at least ten minutes. After the fourth cycle final volume in each well was 100 μl. The cells were analyzed on FLIPR (Molecular Devices) for the change in fluorescence after the addition of a 100 μl of a 2× drug stock. FLIPR was set up to excite the dye with at 488 nanometers using 500 mW of power. A 0.5 second exposure was used to illuminate each well. Fluorescence emission was recorded above 525 nm. Fluorescence was detected using a F-stop set of either 2.0 or 1.2.
We compared the physiological Earles Balanced Salt Solution (EBBS) buffer and the special cell culture media (MMEBSS) in the Ca^++functional assay on FLIPR.
The special cell culture media, designated MMEBSS is comprised of 4 mM CaCl2, 0.8 mM MgSO4, 20 mM NaCl, 5.3 mM KCL, 5.6 mM D-Glucose, 120 mM N-Methyl-D-Glucosamine, 9 mM Tris base and 20 mM HEPES. A detailed description of the preparation of MMEBSS is provided below.

[1] = molecular target: T2, α7/5-HT3 Chimeric Ligand Gated Ion Channel (Homo sapiens, UniProt P36544, M226I/T225I); type: binding, human α7 / mouse 5-HT3; settings: for IC50: read-out: Fitc-α-Bungoarotoxin Binding (30 nM) IC50
T2 construct: expressed in transfected cells

α7 nAChR [2] = molecular target: T3, α7 nAChR (Homo sapiens, UniProt P36544); settings: endogenous α7 nACh receptor; cited from earlier work
[3] = molecular target: double mutant human α7 ligand gated ion channel (Homo sapiens, UniProt P36544, C241S/T230P); settings: 100 M nicotine as printed
Description: The cells were grown in a 37° C. incubator with 6% CO2. […] Each cycle was programmed to wash each well with four times with either EBSS or MMEBSS. […] A 0.5 second exposure was used to illuminate each well. Fluorescence was detected using a F-stop set of either 2.0 or 1.2.

α7 nAChR [4] = molecular target: T3, α7 nAChR; settings: human receptor; cited from earlier work
chicken α7 nAChR = chicken α7 nAChR (Gallus gallus, UniProt P22770); settings: chicken receptor; cited from earlier work
Sequence of chicken α7 nAChR (P22770 23-502 limits assumed): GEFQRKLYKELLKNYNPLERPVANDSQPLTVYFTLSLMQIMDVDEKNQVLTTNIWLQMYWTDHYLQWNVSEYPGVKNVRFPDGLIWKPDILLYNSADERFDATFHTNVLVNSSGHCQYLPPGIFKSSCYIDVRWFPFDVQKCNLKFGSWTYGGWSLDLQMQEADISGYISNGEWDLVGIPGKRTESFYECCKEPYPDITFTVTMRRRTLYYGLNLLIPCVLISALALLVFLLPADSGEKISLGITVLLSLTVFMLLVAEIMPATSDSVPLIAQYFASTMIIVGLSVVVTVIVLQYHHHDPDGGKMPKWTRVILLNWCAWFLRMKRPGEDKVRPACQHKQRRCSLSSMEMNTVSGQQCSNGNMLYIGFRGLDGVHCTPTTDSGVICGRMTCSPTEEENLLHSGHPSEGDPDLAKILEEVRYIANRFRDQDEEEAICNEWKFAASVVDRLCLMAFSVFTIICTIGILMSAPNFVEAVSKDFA

T2 sequence (P36544 with tags, fused parts or gaps T225I/M226I): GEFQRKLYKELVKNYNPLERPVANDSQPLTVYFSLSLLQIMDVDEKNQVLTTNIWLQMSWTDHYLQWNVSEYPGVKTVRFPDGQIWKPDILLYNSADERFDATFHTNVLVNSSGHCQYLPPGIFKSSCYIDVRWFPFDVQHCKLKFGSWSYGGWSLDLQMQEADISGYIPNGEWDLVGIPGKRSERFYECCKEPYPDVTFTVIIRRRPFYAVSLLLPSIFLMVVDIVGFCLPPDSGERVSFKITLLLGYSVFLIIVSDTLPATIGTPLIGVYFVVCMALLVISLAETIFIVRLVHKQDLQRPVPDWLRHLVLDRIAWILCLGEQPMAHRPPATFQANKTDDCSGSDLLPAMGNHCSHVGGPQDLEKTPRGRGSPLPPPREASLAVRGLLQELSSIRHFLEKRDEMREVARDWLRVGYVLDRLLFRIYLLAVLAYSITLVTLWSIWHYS
T1 sequence (P36544 with tags, fused parts or gaps T225I/M226I): as above
T3 sequence (P36544 23-502): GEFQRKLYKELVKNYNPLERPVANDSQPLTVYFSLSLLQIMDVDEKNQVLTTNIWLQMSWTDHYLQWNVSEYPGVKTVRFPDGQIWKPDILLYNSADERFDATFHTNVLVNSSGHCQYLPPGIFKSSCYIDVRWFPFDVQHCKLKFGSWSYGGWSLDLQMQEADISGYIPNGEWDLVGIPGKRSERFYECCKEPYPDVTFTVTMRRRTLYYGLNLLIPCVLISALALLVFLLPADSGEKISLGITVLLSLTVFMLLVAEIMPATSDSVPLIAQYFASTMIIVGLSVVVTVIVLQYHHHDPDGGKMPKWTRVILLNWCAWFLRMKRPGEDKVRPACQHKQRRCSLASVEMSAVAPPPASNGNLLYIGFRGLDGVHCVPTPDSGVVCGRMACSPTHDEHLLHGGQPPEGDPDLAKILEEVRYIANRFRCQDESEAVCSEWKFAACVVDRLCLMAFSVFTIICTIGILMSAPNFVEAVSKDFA
Sequence of double mutant human α7 ligand gated ion channel (P36544 23-502 T230P/C241S): as the sequence (P36544 23-502) above, with T208P, C219S counted along it

Compound | EC50 (α7/5-HT3 channel; MMEBSS) [µM] | IC50 [1] [µM] | EC50 (α7 nAChR [2]) [µM] | further results
Clc1ccc([C@@H]2C[C@H]3CC[C@@H]2N3)cn1 (racemic) [(+/−) Epibatidine] | 0.12 | 0.09 | 2 | Ki ([1]; read-out: Ki, competition for Fl-btx binding): 0.09 µM
CCN1C[C@]2(COC(=O)c3ccccc3N3C(=O)C[C@H](C)C3=O)CC[C@H](OC)[C@@]34[C@@H]5C[C@H]6[C@H](OC)[C@@H]5[C@](O)(C[C@@H]6OC)[C@](O)([C@@H](OC)[C@H]23)[C@@H]14 [Methyllcaconitine (MLA), Methyllcaconitine] | – | 0.026 | – | –
CN1CCCC1c1cccnc1 (single isomer, unassigned; (-)) [(−) Nicotine] | – | – | – | Calcium response to agonist in physiological buffer (α7/5-HT3 channel; 100 μM, EBSS, FIG. 6): little calcium was detected; Calcium response to agonist in special cell culture media (α7/5-HT3 channel; 100 μM, MMEBSS, FIG. 6): evoked a large increase in intracellular calcium; Competition of Fl-btx binding [1]: competes at all concentrations of Fl-btx; Calcium influx [3]: induced a maximal calcium influx
Cc1cc([C@@H]2CCCN2C)on1 [ABT-418] | 27 | 38 | 70 | –
CNC1(C)C2CCC(C2)C1(C)C (stereo not shown) [Mecamylamine] | – | > 300 | – | –
C[N+]1(C)CCN(c2ccccc2)CC1 [1,1-dimethyl-4-phenylpiperazinium] | – | – | – | Agonist character (α7 nAChR [4]): full agonist; Agonist character (chicken α7 nAChR): partial agonist
c1cncc(C2=NCCCC2)c1 [Anabaseine] | 6.6 | – | 6 | –
COc1ccc(/C=C2\CCCN=C2c2cccnc2)c(OC)c1 [GTS-21] | – | – | 30 | IC50 ([1]; 30 nM Fl-btx, whole cell): 16 µM
